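Values below derive from 48-hour exposures of cells grown in 96-well plates, with endpoints linearly interpolated between the two concentrations bracketing the appropriate inhibition level. The concentration for 50% growth inhibition is given as GI50.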 Active and inactive are the calls of the source. Rule as the data show it: active = GI50 up to about 1.1 µM and inactive = higher.
Experiments:
Assay in all cases: growth of human tumour cells (NCI), 48 h
NCI-H226 = tested on: NCI-H226
MOLT-4 = tested on: MOLT-4
SK-OV-3 = tested on: SK-OV-3
SK-MEL-2 = tested on: SK-MEL-2
SK-MEL-28 = tested on: SK-MEL-28
SK-MEL-5 = tested on: SK-MEL-5
DU-145 = tested on: DU-145
786-0 = tested on: 786-0
HCT-15 = tested on: HCT-15
ACHN = tested on: ACHN
U-251 = tested on: U-251
SN12C = tested on: SN12C
M14 = tested on: M14
CAKI-1 = tested on: CAKI-1
SNB-75 = tested on: SNB-75
OVCAR-3 = tested on: OVCAR-3
SF-295 = tested on: SF-295
HOP-92 = tested on: HOP-92
SW-620 = tested on: SW-620
A498 = tested on: A498
NCI-H522 = tested on: NCI-H522
T47D = tested on: T47D
UACC-257 = tested on: UACC-257
NCI-H23 = tested on: NCI-H23
Hs-578T = tested on: Hs-578T
HL-60 = tested on: HL-60
IGROV-1 = tested on: IGROV-1
K562 = tested on: K562
A549 = tested on: A549
TK-10 = tested on: TK-10
SNB-19 = tested on: SNB-19
HT-29 = tested on: HT-29
MDA-MB-435 = tested on: MDA-MB-435
SF-268 = tested on: SF-268
MDA-MB-231 = tested on: MDA-MB-231
SR = tested on: SR
BT-549 = tested on: BT-549
KM12 = tested on: KM12
PC-3 = tested on: PC-3
OVCAR-4 = tested on: OVCAR-4
NCI/ADR-RES = tested on: NCI/ADR-RES
RXF 393 = tested on: RXF 393
UACC-62 = tested on: UACC-62
SF-539 = tested on: SF-539
OVCAR-8 = tested on: OVCAR-8
RPMI-8226 = tested on: RPMI-8226
LOX IMVI = tested on: LOX IMVI
UO-31 = tested on: UO-31
MDA-N = tested on: MDA-N
HOP-62 = tested on: HOP-62
OVCAR-5 = tested on: OVCAR-5
COLO 205 = tested on: COLO 205
HCT-116 = tested on: HCT-116
MCF7 = tested on: MCF7
Malme-3M = tested on: Malme-3M
EKVX = tested on: EKVX

In the case of CC(C)(C)c1cc(-c2ccc(-c3cc(C(C)(C)C)c(O)c(C(C)(C)C)c3)cc2)cc(C(C)(C)C)c1O, the GI50 (NCI-H226) is reported as > 100 µM (inactive), the GI50 (MOLT-4) is reported as > 100 µM (inactive) and the GI50 (SK-OV-3) is reported as > 100 µM (inactive). For the same molecule, the GI50 (SK-MEL-2) was > 100 µM (inactive), the GI50 (SK-MEL-28) was > 100 µM (inactive) and the GI50 (SK-MEL-5) was > 100 µM (inactive). For the same molecule, the GI50 (DU-145) was > 100 µM (inactive), the GI50 (786-0) was > 100 µM (inactive) and the GI50 (HCT-15) was > 100 µM. The GI50 (ACHN) was > 100 µM (inactive), the GI50 (U-251) was > 100 µM (inactive) and the GI50 (SN12C) was > 100 µM (inactive). The GI50 (M14) was > 100 µM (inactive), the GI50 (CAKI-1) was > 100 µM (inactive) and the GI50 (SNB-75) was > 100 µM (inactive). The GI50 (OVCAR-3) was > 100 µM (inactive), the GI50 (SF-295) was > 100 µM (inactive) and the GI50 (HOP-92) was > 100 µM (inactive). For the same molecule, the GI50 (SW-620) was > 100 µM (inactive), the GI50 (A498) was > 100 µM (inactive) and the GI50 (NCI-H522) was > 100 µM (inactive). The GI50 (T47D) was > 100 µM (inactive), the GI50 (UACC-257) was > 100 µM (inactive) and the GI50 (NCI-H23) was > 100 µM (inactive). For the same molecule, the GI50 (Hs-578T) was > 10 µM (inactive), the GI50 (HL-60) was > 100 µM (inactive) and the GI50 (IGROV-1) was > 100 µM (inactive). The GI50 (K562) was > 100 µM (inactive), the GI50 (A549) was > 100 µM (inactive) and the GI50 (TK-10) was > 100 µM (inactive). For the same molecule, the GI50 (SNB-19) was > 100 µM (inactive), the GI50 (HT-29) was > 100 µM (inactive) and the GI50 (MDA-MB-435) was > 100 µM (inactive). The GI50 (SF-268) was > 100 µM (inactive), the GI50 (MDA-MB-231) was > 100 µM (inactive) and the GI50 (SR) was > 100 µM (inactive). The GI50 (BT-549) was > 100 µM (inactive), the GI50 (KM12) was > 100 µM (inactive) and the GI50 (PC-3) was > 100 µM (inactive). The GI50 (OVCAR-4) was > 100 µM (inactive), the GI50 (NCI/ADR-RES) was > 100 µM (inactive) and the GI50 (RXF 393) was > 100 µM (inactive). The GI50 (UACC-62) was > 100 µM (inactive), the GI50 (SF-539) was > 100 µM (inactive) and the GI50 (OVCAR-8) was > 100 µM (inactive). The GI50 (RPMI-8226) was > 100 µM (inactive), the GI50 (LOX IMVI) was > 100 µM (inactive) and the GI50 (UO-31) was > 100 µM (inactive). The GI50 (MDA-N) was > 100 µM (inactive), the GI50 (HOP-62) was > 100 µM (inactive) and the GI50 (OVCAR-5) was > 100 µM (inactive). The GI50 (COLO 205) was > 100 µM (inactive), the GI50 (HCT-116) was > 100 µM (inactive) and the GI50 (MCF7) was > 100 µM (inactive). The GI50 (Malme-3M) was > 100 µM (inactive) and the GI50 (EKVX) was > 100 µM (inactive).
